Source: publication PMC5814754, “Quantitative, Wide-Spectrum Kinase Profiling in Live Cells for Assessing the Effect of Cellular ATP on Target Engagement” (Cell Chemical Biology, 2018)
Read-outs that look alike come from different tables or passages of the source.

Columns and labels:
Assay in all cases: Apparent affinity (EC50) of energy transfer probes by titration onto live HEK293 cells expressing kinase/Nluc fusions (Table S1)
Type in all cases: binding
[1] = biological target: full-length kinase/Nluc fusion proteins (Homo sapiens, UniProt P51451); settings: BLK, Nluc N; read-out: Probe EC50
[2] = biological target: full-length kinase/Nluc fusion proteins (Homo sapiens, UniProt Q9H0K1); settings: SNF1LK2 (NP_056006), Nluc orientation N; read-out: Probe EC50
[3] = biological target: full-length kinase/Nluc fusion proteins (Homo sapiens, UniProt P29317); settings: EPHA2, Nluc C; read-out: Probe EC50
[4] = biological target: full-length kinase/Nluc fusion proteins (Homo sapiens, UniProt P09769); settings: FGR, Nluc N; read-out: Probe EC50
Sequence of full-length kinase/Nluc fusion proteins (Homo sapiens, UniProt P09769) (P09769 whole entry, the tested form may be a part): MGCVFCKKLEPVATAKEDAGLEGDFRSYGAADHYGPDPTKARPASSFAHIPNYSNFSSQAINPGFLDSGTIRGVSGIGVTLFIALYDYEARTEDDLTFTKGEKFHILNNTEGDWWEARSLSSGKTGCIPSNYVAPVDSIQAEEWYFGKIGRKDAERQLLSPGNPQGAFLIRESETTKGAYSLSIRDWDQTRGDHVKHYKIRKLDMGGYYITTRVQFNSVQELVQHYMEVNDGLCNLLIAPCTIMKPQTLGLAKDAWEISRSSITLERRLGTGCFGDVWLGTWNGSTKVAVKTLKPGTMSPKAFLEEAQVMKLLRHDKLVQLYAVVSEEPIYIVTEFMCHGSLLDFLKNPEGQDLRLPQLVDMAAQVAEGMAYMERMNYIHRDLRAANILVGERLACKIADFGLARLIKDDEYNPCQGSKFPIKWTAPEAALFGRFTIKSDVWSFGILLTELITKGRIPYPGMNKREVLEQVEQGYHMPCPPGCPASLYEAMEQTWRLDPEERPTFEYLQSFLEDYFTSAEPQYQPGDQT

[5] = biological target: full-length kinase/Nluc fusion proteins (Homo sapiens, UniProt P54756); settings: EPHA5, Nluc C; read-out: Probe EC50
[6] = biological target: full-length kinase/Nluc fusion proteins (Homo sapiens, UniProt Q00535); settings: CDK5, Nluc C; read-out: Probe EC50
Sequence of full-length kinase/Nluc fusion proteins (Homo sapiens, UniProt Q00535) (Q00535 whole entry, the tested form may be a part): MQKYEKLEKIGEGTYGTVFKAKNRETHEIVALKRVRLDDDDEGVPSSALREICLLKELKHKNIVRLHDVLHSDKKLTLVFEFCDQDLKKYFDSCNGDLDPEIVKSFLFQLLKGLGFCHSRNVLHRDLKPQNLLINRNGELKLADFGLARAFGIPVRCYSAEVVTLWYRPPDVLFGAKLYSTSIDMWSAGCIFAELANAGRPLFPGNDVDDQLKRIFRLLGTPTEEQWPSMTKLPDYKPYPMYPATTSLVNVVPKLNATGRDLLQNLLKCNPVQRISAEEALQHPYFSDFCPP

[7] = biological target: full-length kinase/Nluc fusion proteins (Homo sapiens, UniProt Q96GD4); settings: AURKB, Nluc C; read-out: Probe EC50
Sequence of full-length kinase/Nluc fusion proteins (Homo sapiens, UniProt Q96GD4) (Q96GD4 whole entry, the tested form may be a part): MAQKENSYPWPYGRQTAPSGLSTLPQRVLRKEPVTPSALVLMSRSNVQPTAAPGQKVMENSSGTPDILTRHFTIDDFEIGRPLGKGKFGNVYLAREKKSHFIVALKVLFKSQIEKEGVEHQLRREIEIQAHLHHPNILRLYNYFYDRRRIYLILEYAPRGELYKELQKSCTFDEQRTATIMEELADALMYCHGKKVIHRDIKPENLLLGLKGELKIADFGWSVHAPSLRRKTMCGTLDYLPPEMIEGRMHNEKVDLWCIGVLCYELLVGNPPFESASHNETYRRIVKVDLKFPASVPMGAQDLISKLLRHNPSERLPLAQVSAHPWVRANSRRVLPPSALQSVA

[8] = biological target: full-length kinase/Nluc fusion proteins (Homo sapiens, UniProt Q96L34); settings: MARK4, Nluc N; read-out: Probe EC50
[9] = biological target: full-length kinase/Nluc fusion proteins (Homo sapiens, UniProt Q9NSY1); settings: BMP2K, Nluc N; read-out: Probe EC50
[10] = biological target: full-length kinase/Nluc fusion proteins (Homo sapiens, UniProt P51955); settings: NEK2, Nluc N; read-out: Probe EC50
[11] = biological target: full-length kinase/Nluc fusion proteins (Homo sapiens, UniProt P45983); settings: read-out: Probe EC50
Sequence of full-length kinase/Nluc fusion proteins (Homo sapiens, UniProt P45983) (P45983 whole entry, the tested form may be a part): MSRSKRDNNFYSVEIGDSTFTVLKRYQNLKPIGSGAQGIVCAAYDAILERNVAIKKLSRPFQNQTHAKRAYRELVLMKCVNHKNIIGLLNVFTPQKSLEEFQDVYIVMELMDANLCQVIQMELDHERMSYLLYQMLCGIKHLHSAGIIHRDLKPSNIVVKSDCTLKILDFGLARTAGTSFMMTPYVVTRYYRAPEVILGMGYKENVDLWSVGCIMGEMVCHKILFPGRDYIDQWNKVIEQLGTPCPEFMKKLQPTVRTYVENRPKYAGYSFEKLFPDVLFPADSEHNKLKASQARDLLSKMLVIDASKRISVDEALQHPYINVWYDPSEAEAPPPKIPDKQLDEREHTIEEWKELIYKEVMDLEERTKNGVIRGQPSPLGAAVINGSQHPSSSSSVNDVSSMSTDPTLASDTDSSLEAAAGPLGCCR

[12] = biological target: full-length kinase/Nluc fusion proteins (Homo sapiens, UniProt O75716); settings: STK16 (NP_001317142), Nluc orientation N; read-out: Probe EC50
[13] = biological target: full-length kinase/Nluc fusion proteins (Homo sapiens, UniProt O60674); settings: JAK2, Nluc C; read-out: Probe EC50
Sequence of full-length kinase/Nluc fusion proteins (Homo sapiens, UniProt O60674) (O60674 whole entry, the tested form may be a part): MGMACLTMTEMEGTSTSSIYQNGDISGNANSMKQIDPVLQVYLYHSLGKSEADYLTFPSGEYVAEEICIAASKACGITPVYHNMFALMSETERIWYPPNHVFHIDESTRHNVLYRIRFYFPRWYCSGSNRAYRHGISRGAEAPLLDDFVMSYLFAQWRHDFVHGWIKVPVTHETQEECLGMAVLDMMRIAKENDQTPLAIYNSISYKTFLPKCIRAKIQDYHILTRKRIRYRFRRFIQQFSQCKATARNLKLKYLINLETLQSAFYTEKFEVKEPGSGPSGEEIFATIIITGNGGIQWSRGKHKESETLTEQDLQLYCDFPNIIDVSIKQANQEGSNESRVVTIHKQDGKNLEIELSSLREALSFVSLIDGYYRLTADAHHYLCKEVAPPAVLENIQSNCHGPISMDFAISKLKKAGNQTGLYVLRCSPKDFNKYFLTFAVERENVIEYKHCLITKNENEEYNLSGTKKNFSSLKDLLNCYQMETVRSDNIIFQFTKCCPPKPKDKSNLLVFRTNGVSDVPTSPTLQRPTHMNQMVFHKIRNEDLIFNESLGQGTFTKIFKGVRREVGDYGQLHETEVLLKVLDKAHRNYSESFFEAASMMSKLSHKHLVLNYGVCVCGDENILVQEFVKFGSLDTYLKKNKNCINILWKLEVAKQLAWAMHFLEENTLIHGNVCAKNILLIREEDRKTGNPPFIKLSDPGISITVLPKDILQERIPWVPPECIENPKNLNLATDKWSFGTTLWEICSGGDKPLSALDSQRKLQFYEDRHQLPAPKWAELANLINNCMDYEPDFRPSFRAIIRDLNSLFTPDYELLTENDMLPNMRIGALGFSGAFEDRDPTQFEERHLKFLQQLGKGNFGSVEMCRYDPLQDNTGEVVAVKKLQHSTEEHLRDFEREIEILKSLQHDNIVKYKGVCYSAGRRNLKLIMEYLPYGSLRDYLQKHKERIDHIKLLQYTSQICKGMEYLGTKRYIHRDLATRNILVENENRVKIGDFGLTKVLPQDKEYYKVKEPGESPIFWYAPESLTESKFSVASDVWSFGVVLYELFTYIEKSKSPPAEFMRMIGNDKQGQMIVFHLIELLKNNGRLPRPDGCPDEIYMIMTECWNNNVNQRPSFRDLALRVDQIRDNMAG

[14] = biological target: full-length kinase/Nluc fusion proteins (Homo sapiens, UniProt O60285); settings: NUAK1, Nluc N; read-out: Probe EC50
[15] = biological target: full-length kinase/Nluc fusion proteins (Homo sapiens, UniProt P35590); settings: TIE1 (NP_005415), Nluc orientation C; read-out: Probe EC50
[16] = biological target: full-length kinase/Nluc fusion proteins (Homo sapiens, UniProt Q13627); settings: DYRK1A, Nluc N; read-out: Probe EC50
[17] = biological target: full-length kinase/Nluc fusion proteins (Homo sapiens, UniProt Q12852); settings: MAP3K12, Nluc N; read-out: Probe EC50
Sequence of full-length kinase/Nluc fusion proteins (Homo sapiens, UniProt Q12852) (Q12852 whole entry, the tested form may be a part): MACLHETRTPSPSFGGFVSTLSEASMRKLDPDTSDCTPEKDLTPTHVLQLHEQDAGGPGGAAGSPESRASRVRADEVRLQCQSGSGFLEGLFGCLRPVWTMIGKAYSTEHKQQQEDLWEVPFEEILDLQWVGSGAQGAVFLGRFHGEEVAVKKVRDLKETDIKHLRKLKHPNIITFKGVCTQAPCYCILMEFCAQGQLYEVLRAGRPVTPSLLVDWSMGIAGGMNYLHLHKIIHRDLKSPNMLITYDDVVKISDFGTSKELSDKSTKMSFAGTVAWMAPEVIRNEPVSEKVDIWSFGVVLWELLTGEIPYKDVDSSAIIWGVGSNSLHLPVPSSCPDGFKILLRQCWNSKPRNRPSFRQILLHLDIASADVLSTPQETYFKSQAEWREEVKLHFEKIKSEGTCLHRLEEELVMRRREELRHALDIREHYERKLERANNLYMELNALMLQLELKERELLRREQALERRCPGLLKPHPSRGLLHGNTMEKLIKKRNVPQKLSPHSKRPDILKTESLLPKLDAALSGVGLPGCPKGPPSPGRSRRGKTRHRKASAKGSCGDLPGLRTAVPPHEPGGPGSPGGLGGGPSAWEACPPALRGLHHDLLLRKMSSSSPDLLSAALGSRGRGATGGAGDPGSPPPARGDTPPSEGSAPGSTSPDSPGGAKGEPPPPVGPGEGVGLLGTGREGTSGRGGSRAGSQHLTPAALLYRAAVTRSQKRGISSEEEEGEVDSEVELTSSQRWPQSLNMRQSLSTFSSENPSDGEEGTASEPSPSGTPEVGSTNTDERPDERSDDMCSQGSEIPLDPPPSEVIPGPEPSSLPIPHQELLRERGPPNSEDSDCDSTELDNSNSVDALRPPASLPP

[18] = biological target: full-length kinase/Nluc fusion proteins (Homo sapiens, UniProt Q9UHD2); settings: TBK1 (NP_037386), Nluc orientation N; read-out: Probe EC50
[19] = biological target: full-length kinase/Nluc fusion proteins (Homo sapiens, UniProt P53779); settings: JNK3, Nluc C; read-out: Probe EC50
[20] = biological target: full-length kinase/Nluc fusion proteins (Homo sapiens, UniProt Q6P5Z2); settings: PKN3, Nluc C; read-out: Probe EC50
[21] = biological target: full-length kinase/Nluc fusion proteins (Homo sapiens, UniProt Q9P286); settings: PAK7, Nluc C; read-out: Probe EC50
[22] = biological target: full-length kinase/Nluc fusion proteins (Homo sapiens, UniProt O14936); settings: CASK, Nluc N; read-out: Probe EC50
Sequence of full-length kinase/Nluc fusion proteins (Homo sapiens, UniProt O14936) (O14936 whole entry, the tested form may be a part): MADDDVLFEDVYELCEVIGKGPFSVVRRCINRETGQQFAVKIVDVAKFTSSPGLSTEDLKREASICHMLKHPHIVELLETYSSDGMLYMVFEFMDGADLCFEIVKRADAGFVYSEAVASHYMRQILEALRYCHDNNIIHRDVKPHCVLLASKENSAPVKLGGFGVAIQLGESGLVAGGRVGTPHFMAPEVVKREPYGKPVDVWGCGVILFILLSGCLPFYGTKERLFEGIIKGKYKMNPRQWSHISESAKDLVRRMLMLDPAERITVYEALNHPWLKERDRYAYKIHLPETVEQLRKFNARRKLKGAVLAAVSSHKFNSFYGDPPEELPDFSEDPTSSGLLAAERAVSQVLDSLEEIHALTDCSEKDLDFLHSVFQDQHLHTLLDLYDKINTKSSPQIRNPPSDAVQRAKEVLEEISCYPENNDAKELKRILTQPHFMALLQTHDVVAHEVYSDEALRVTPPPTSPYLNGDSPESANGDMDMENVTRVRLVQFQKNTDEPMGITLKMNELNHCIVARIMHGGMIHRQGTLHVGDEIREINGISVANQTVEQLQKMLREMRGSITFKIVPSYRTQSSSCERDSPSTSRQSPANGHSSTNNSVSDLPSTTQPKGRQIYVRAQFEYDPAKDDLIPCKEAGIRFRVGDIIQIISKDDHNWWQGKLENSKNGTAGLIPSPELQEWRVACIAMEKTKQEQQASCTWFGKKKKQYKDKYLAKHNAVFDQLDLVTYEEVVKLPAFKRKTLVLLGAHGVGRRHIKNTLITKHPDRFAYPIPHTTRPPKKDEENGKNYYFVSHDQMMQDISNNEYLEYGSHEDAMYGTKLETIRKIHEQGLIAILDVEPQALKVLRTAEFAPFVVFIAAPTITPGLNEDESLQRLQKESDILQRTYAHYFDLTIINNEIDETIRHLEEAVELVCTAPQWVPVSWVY

[23] = biological target: full-length kinase/Nluc fusion proteins (Homo sapiens, UniProt P36896); settings: ACVR1B, Nluc C; read-out: Probe EC50
Sequence of full-length kinase/Nluc fusion proteins (Homo sapiens, UniProt P36896) (P36896 24-505): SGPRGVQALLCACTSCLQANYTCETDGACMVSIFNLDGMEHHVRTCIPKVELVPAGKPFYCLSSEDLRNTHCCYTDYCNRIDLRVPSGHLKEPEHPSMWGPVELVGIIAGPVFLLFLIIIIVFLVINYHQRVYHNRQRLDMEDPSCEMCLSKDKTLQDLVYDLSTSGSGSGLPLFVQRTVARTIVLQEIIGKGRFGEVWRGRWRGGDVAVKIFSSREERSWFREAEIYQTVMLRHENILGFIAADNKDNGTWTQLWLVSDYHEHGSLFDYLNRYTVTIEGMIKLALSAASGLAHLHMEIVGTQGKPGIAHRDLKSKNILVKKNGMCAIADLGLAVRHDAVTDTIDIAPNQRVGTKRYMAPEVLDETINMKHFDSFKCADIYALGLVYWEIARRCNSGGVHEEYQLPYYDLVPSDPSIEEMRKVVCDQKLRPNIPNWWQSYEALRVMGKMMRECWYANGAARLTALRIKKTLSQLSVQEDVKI

[24] = biological target: full-length kinase/Nluc fusion proteins (Homo sapiens, UniProt Q02779); settings: MAP3K10, Nluc N; read-out: Probe EC50
[25] = biological target: full-length kinase/Nluc fusion proteins (Homo sapiens, UniProt Q15375); settings: EPHA7, Nluc C; read-out: Probe EC50
[26] = biological target: full-length kinase/Nluc fusion proteins (Homo sapiens, UniProt O75385); settings: ULK1 (NP_003556), Nluc orientation N; read-out: Probe EC50
[27] = biological target: full-length kinase/Nluc fusion proteins (Homo sapiens, UniProt P17612); settings: PRKACA, Nluc C; read-out: Probe EC50
[28] = biological target: full-length kinase/Nluc fusion proteins (Homo sapiens, UniProt Q8TD19); settings: NEK9, Nluc N; read-out: Probe EC50
[29] = biological target: full-length kinase/Nluc fusion proteins (Homo sapiens, UniProt P31751); settings: AKT2, Nluc C; read-out: Probe EC50
[30] = biological target: full-length kinase/Nluc fusion proteins (Homo sapiens, UniProt Q13043); settings: STK4 (NP_006273), Nluc orientation N; read-out: Probe EC50
[31] = biological target: full-length kinase/Nluc fusion proteins (Homo sapiens, UniProt Q9NRM7); settings: LATS2, Nluc C; read-out: Probe EC50
[32] = biological target: full-length kinase/Nluc fusion proteins (Homo sapiens, UniProt P07949); settings: RET, Nluc C; read-out: Probe EC50

Measured: EC50

Cc1nc(Nc2ncc(C(=O)Nc3c(C)cccc3Cl)s2)cc(N2CCN(CCOCCNC(=O)CCc3ccc4n3[B-](F)(F)[N+]3=C(c5ccc[nH]5)C=CC3=C4)CC2)n1 [Energy Transfer Probe 6, 2-((6-(4-(2-(2-aminoethoxy)ethyl)piperazin-1-yl)-2-methylpyrimidin-4-yl)amino)-N-(2-chloro-6-methylphenyl)thiazole-5-carboxamide-NanoBRET 590]
0.7 µM: [4]
0.06 µM: [3]
0.1 µM: [2]
0.03 µM: [5]
0.3 µM: [1]

CNC(=O)c1ccccc1Nc1nc(Nc2ccc(N3CCN(C(=O)CCOCCOCCOCCOCCNC(=O)CCc4ccc5n4[B-](F)(F)[N+]4=C(c6ccc[nH]6)C=CC4=C5)CC3)cc2)ncc1Cl [Energy Transfer Probe 5, 2-((2-((4-(4-(1-amino-3,6,9,12-tetraoxapentadecan-15-oyl)piperazin-1-yl)phenyl)amino)-5-chloropyrimidin-4-yl)amino)-N-methylbenzamide-NanoBRET 590]
0.5 µM: [32]
0.4 µM: [18]
> 1 µM: [6] | [8] | [9] | [10] | [11]; JNK1, Nluc N | [13] | [16] | [17] | [19] | [20] | [21] | [22] | [23] | [24] | [25] | [26] | [27] | [28] | [29] | [30]
0.1 µM: [14] | [15]
0.01 µM: [7]
0.3 µM: [11]; MAPK8, Nluc N | [12] | [31]
